Experimental data published in patent US10100096B2, “Tissue protective peptides and uses thereof” (Araim Pharmaceuticals, Inc., priority 2005, dated 2018).
“Also recorded” adds a separate entry of the source. No end group written: not given here.

Legend:
[1] = test system: right sciatic nerve of rats; assay: Sciatic nerve assay (in vivo sciatic nerve injury model); set-up: species or system rat; settings: Example 2, Table 1, FIG. 1, FIG. 2, comparison with carbamylated EPO
Method: The tissue protective peptides were tested for any tissue protective activity using a Sciatic Nerve Assay. Sprague-Dawley rats (250-300 grams) (six per group, including control) were anesthetized using isoflurane (Baxter NPC 10019-773-60) and a Table Top Laboratory Anesthesia System (flowmeter set to 2-3 liters/minute @55 psi) for at least 3 minutes. The rat was then placed on a homeothermic blanket to ensure that the core temperature of the rat was maintained at 35-37° C. during the operation. Core temperature was monitored via a rectal probe. The right sciatic nerve of the anesthetized rat was exposed at mid thigh through a quadriceps muscle dissection; a 2 cm incision with a 15 blade scalpel was made through the skin parallel and over the quadriceps muscle and the quadriceps muscle was cut to expose the sciatic nerve using a pair of dissecting scissors. The sciatic nerve was then freed from the surrounding membranes. A 2-0 braided silk thread (Ethicon, 685-G) was passed under the nerve and the ends of the suture passed through a guide which was maintained perpendicular to the nerve. The end of the suture was then tied to a non-elastic cord which was then draped around the pulley system (a NYL pulley bearing MTD ¼″ B (PO Number 04174-01) with stabilizer) and a 100 gram weight attached to the non-elastic cord was slowly released. The weight was allowed to hang for 1 minute before the silk suture was cut to release the weight.
A 289 pmol/kg dose of carbamylated erythropoietin, a 289 pmol/kg dose of one peptide from the series A-J (see Table 1), or PBS was then injected into the caudal vein using a ½ cc insulin syringe.
The muscle and surgical incision were then closed and 5 ml of Lactated Ringers solution was injected subcutaneously into the rat. The core temperature of the rat was maintained at 35-37° C. using a heat blanket during recovery.
Over the next four days the rear toe splaying of the rats was determined by placing the rat in an acrylic tube with a diameter of 30 cm on the scanning surface of a digital scanner. […] Three acceptable scans of each rat were taken. From the scans, the Toe Spread (the distance between the ball of the first toe and the ball of the fifth toe) and the Intermediate Toe Spread (the distance between the ball of the second toe and the ball of the fourth toe) were measured. The static sciatic index was then computed in accordance with S. Erbayraktar et al., 2003, Proc Natl Acad Sci USA 100, 6741-6746 (hereby incorporated by reference in its entirety) and statistical analysis performed.

[2] = test system: experimental autoimmune encephalomyelitis in mice; assay: Murine EAE model; assay type: in vivo, mouse; settings: C57BL/6 mice; 4.4 μg/kg daily starting day 4 after immunization; p<0.01; FIG. 13
Method: Experimental autoimmune encephalomyelitis ([…]) was induced in C57BL/6 female mice (6-8 weeks of age) according to Savino et al., 2006, J Neuroimmunol 172:27-37, hereby incorporated by reference in its entirety. EAE was induced by subcutaneous immunization in the flanks with a total of 200 μg of MOG35-55 (Multiple Peptide Systems, San Diego, Calif., USA) in incomplete Freund's adjuvant (Sigma. St. Louis, Mo., USA) supplemented with 8 mg/ml of Mycobacterium tuberculosis (strain H37RA; Difco, Detroit, Mich., USA). Animals were housed in specific pathogen-free conditions, allowing access to food and water ad libitum. Mice received 500 ng of pertussin toxin (Sigma) i.v. at the time of immunization and 48 h later. Weight and clinical score were recorded daily (0=healthy, 1=flaccid tail, 2=ataxia, and/or hind-limbs paresis, or slow righting reflex, […] 3=paralysis of hind limb and/or paresis of forelimbs, 4=paraparesis of fore limb, 5=moribund or death). Food pellets and the drinking water were placed on Petri plates on the floor of the cage to enable sick mice to eat and drink. Peptide E (SEQ ID NO:31) was administered daily subcutaneously at a dose of 4.4 micrograms/kg-bw, starting on day 4 after immunization.

[3] = In vivo assessment of erythropoietic activity and neutralizing antibodies; set-up: species or system rat; settings: rats, 0.8 μg/kg s.c. 3 days/week over 130 days, FIG. 4; for increase in hemoglobin levels (hematocrit): EPO at equimolar dosage
Method: To evaluate the erythropoietic activity of tissue protective peptide F (SEQ ID NO:33) or peptide G (SEQ ID NO:40, as discussed supra a peptide constructed of the presenting residues of Helix B), the peptides were administered 0.8 μg/kg subcutaneously three time per week to male Sprague Dawley rats. The dosage schedule corresponded to the equivalent dose (on a molar basis) of EPO previously determined to be elicit maximum erythropoiesis. Hemoglobin concentration was determined periodically by use of an automated analyzer (Keska Corporation).

mouse P19 cells = assay: P19 cell apoptosis upon withdrawal of serum; assay type: cell-based; settings: times more potent than EPO, on a weight basis; FIG. 6
Method: Alternatively, tissue protection afforded by peptides can be determined using an assay employing mouse P19 cells, which are neuronal-like and die via apoptosis upon withdrawal of serum. Tissue protection of peptide D (SEQ ID NO:30) was compared to that of EPO using P19 clone P19S1801A1 as previously published (Siren et al., 2001, PNAS 98:4044, hereby incorporated by reference in its entirety). Cells were maintained undifferentiated in DMEM supplemented with 2 mM Lglutamine; 100 units/ml penicillin G; […] streptomycin sulfate (GIBCO); 10% (vol/vol) FBS (HyClone), containing 1.2 g/liter NaHCO3 and 10 mM Hepes buffer, hereafter referred to as complete medium. Serum-free medium contained the same components as above with the deletion of serum and the addition of 5 mg/ml of insulin; […] of transferrin; 20 nM progesterone; […] putrescine; 30 nM Na2SeO3 (from Sigma). For the experiments, 50% confluent cells were pretreated overnight with EPO or vehicle, dissociated with trypsin, washed in serum-free medium, and plated in 25-cm^2 tissue culture flasks at a final density of 10^4 cells/cm^2 in serum-free medium alone or with added EPO. Cell viability and was determined by trypan blue exclusion and a hemacytometer.

For “APPRLICDSRVLERYLLEAKEAE (Peptide A - consists of the N-terminal portion of Helix A corresponding to EPO amino acids 1-23) [EPO fragment, amino acids 1-23]”, the “tissue protective activity in the sciatic nerve injury model (in words)” value (from here on “tissue protective activity”) [1] was “is tissue protective”.
With “CSLNENIQEQLERALNSS (Peptide I - A chimera peptide linking the helix B exterior-presenting amino acids to the beta pleated sheet found within the AB loop of the EPO) [chimera: Peptide G + β-pleated sheet (33-39)]” the “tissue protective activity” value [1] was “is tissue protective”.
With “GCAEHCSLNENITVPDTKVN (Peptide E - a portion of the A-B loop consisting of a small cysteine loop and a Beta-pleated sheet corresponding to EPO amino acids 28-47) [EPO fragment, amino acids 28-47]” the “tissue protective activity” value [1] was “is tissue protective”, the “tissue protective activity” value ([1]; listed as SEQ ID NO:31) was “exhibit tissue protective properties” and the “clinical score / neurological function in EAE” value [2] was “significantly reduced both the time course and severity; also recorded: significantly improved neurological function”.
With “NITTGCAEHCSLNE (Peptide B - consists of EPO amino acids 24-37) [EPO fragment, amino acids 24-37]” the “tissue protective activity” value [1] was “is not tissue protective” and the “increase in hemoglobin levels (hematocrit)” value [3] was “Neither Peptide B nor Peptide C showed any increase in hematocrit”.
In the case of “NITVPDTKVNFYAWKRMEVG (Peptide C - loop AB and N-terminal portion of helix B corresponding to EPO amino acids 38-57) [EPO fragment, amino acids 38-57]”, the “potency relative to EPO in preventing apoptosis of p19 cells” value (mouse P19 cells) is reported as “at least 10”, the “tissue protective activity” value [1] is reported as “exhibit tissue protective properties” and the “increase in hemoglobin levels (hematocrit)” value [3] is reported as “Neither Peptide B nor Peptide C showed any increase in hematocrit”.
For QEQLERALNSS [Peptide G, QEQLERALNSS], the “neutralizing antibody response against EPO” value [3] was “no neutralizing antibody response was observed; also recorded: neither peptide elicits an antibody response”.
In the case of “QEQLERALNSSLRRYINMLTRTR (Peptide J - A chimera peptide of Peptide G linked to pancreatic polypeptide helix)”, the “tissue protective activity” value [1] is reported as “potent tissue protective activity”.
With “RYLLEAKEAENITTGC [Peptide F, RYLLEAKEAENITTGC]” the “neutralizing antibody response against EPO” value [3] was “no neutralizing antibody response was observed; also recorded: neither peptide elicits an antibody response”.
